Measured values: patent US20250276964A1 (Novartis AG, priority 2021, published 2025)

What was measured:
WIZ = target: T1, WIZ (Homo sapiens, UniProt O95785+Q96SW2); experiment: Quantification of WIZ protein levels in HiBit tag fusion protein assay (WIZ HiBit assay in 293T cells); assay type: cell-based; details: for Dmax at 25 µM / remaining activity at 25 µM: HEK-293T; for Dmax at 25 µM: 100 minus Amax at 25 uM, read-out: % degradation of WIZ (100-Amax); for remaining activity at 25 µM: DMSO-normalized, curve-fitted percentage of WIZ-HiBit remaining at 25 uM, read-out: WIZ Amax; for DC50: WIZ HiBit assay in 293T cells, 10-point, 5-fold dilution, highest concentration 25 μM, about 18 hours, read-out: WIZ AC50
T1 construct: expressed in transfected cells
T1 sequence (O95785 whole entry, the tested form may be a part): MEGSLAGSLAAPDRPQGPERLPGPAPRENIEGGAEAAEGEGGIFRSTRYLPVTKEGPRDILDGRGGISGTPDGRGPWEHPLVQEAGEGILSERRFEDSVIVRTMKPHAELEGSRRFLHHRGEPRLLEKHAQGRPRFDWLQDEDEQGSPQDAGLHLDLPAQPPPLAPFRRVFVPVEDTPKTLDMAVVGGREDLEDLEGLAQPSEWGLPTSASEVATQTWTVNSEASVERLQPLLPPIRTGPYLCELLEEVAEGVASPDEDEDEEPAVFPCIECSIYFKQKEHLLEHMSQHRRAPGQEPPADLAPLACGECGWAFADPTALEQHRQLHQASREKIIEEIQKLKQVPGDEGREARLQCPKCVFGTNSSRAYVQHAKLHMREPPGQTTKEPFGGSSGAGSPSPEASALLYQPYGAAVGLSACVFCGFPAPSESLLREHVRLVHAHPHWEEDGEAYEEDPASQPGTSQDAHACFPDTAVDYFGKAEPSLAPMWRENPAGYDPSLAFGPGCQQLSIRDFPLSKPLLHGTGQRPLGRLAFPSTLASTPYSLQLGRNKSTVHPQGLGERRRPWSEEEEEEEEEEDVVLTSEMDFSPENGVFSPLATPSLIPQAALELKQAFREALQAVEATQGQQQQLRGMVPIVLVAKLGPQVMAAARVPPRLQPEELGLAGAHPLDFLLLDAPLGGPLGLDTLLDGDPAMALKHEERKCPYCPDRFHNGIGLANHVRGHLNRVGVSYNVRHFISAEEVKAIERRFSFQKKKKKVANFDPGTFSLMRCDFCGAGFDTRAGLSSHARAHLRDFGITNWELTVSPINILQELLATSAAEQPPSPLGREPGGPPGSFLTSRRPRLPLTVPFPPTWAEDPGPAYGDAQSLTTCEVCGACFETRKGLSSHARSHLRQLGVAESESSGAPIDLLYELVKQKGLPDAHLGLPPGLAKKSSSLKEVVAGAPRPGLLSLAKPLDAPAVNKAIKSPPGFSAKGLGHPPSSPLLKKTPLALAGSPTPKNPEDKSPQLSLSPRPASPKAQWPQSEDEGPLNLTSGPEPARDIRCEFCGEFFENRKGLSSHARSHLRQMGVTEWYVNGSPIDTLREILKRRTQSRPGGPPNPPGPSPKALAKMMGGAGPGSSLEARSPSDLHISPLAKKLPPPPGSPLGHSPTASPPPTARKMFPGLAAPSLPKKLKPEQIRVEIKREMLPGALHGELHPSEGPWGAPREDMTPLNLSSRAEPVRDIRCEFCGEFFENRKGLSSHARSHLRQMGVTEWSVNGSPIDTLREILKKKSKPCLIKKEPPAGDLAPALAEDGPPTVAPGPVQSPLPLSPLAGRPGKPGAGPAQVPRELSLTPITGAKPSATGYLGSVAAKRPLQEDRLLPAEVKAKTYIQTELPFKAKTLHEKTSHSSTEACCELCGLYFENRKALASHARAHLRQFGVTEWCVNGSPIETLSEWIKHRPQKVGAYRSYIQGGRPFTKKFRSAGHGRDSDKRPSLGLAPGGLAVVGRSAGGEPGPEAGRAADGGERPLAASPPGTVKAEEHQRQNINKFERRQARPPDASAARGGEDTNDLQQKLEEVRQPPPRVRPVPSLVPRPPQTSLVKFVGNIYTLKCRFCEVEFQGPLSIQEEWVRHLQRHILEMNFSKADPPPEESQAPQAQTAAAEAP
T1 sequence (Q96SW2 whole entry, the tested form may be a part): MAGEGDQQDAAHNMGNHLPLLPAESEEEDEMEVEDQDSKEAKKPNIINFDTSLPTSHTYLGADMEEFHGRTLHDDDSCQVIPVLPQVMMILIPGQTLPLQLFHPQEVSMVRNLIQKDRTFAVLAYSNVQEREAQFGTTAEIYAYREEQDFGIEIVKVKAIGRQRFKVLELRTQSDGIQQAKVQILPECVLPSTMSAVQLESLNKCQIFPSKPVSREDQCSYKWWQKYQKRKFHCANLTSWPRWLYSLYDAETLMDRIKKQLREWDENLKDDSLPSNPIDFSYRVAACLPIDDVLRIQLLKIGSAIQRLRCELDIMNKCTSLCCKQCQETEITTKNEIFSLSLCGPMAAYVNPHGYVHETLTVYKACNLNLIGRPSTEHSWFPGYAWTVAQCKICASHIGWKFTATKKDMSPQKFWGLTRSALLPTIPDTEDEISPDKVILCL
T1 sequence (Q16531 whole entry partner, the tested form may be a part): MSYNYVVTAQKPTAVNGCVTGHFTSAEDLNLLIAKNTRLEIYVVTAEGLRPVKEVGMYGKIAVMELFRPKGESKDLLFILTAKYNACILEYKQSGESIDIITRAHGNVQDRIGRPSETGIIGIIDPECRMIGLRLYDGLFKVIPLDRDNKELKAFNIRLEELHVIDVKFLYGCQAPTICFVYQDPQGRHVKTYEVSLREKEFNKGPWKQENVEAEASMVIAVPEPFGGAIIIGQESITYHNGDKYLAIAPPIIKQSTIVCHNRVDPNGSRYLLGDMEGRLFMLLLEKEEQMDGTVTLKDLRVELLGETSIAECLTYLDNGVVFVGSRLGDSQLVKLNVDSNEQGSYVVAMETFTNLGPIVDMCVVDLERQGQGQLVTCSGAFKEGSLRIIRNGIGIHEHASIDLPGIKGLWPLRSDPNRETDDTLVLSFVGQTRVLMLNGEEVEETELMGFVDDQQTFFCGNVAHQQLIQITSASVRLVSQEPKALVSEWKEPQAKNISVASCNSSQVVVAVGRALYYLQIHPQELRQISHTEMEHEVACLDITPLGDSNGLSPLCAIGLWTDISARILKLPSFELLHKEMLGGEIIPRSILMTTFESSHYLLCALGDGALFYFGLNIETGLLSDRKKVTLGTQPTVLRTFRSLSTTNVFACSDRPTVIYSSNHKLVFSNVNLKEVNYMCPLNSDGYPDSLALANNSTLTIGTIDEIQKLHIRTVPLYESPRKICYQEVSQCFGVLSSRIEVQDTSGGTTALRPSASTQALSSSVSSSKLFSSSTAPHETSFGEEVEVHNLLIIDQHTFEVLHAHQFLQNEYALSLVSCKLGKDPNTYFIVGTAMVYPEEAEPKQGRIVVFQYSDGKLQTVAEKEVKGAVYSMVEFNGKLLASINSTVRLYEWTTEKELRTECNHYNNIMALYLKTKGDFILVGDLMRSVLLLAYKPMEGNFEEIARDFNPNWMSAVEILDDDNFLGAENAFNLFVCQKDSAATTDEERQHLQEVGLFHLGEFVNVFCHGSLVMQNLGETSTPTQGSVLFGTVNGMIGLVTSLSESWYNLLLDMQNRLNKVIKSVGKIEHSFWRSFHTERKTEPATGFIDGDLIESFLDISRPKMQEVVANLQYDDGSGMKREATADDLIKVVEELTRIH
Summary of the method: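 293T cells stably carrying single-copy HiBit-WIZ (HSVTK promoter) treated ~18 h at 37 °C with 10-point, 5-fold dilutions, top 25 μM. Lytic HiBit luminescence read; Amax is DMSO-normalised, curve-fitted % WIZ-HiBit remaining at 25 uM.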

Fetal Hemoglobin (HbF) = experiment: Small molecule HbF induction assay (erythroid differentiated mPB CD34+ cells, flow cytometry); assay type: cell-based, human; details: for EC50: Homo sapiens, mPB CD34+ cells expanded 6 days, erythroid differentiated with compound 7 days, 7-point, 1:3 dilution from 30 uM; for HbF Amax: highest percentage of cells staining positive for HbF (% HbF+ cells) in the fitted dose-response curve, DMSO baseline approximately 30-40%
Method: Cryopreserved primary human CD34^+ hematopoietic stem and progenitor cells were obtained from AllCells, LLC. The CD34^+ cells were isolated from the peripheral blood of healthy donors after mobilization by administration of granulocyte colony-stimulating factor. Cells were differentiated ex vivo toward the erythroid lineage using a 2-phase culture method. In the first phase, cells were cultured in StemSpan™ Serum-Free Expansion Media (SFEM) ([…] Technologies Inc.) supplemented with rhSCF (50 ng/mL, Peprotech®, Inc.), rhIL-6 (50 ng/mL, Peprotech®, Inc.), rhIL-3 (50 ng/mL, Peprotech®, Inc.), and rhFlt3L (50 ng/mL, Peprotech®, Inc.), and 1× antibiotic-antimycotic (Life Technologies, Thermo Fisher Scientific) for 6 days at 37° C. with 5% CO2. During the second phase, cells were cultured in erythroid differentiation media at 5,000 cells/mL in the presence of compound for 7 days at 37° C. with 5% CO2. Erythroid Differentiation Media is comprised of IMDM (Life Technologies) supplemented with insulin (10 μg/mL, Sigma Aldrich), heparin (2 U/mL Sigma Aldrich), holo-transferrin (330 μg/mL, Sigma Aldrich), human serum AB (5%, Sigma Aldrich), hydrocortisone (1 μM, […] Technologies), rhSCF (100 ng/mL, Peprotech®, Inc.), rhIL-3 (5 ng/mL, Peprotech®, Inc.), rhEPO (3 U/mL, Peprotech®, Inc.), and 1× antibiotic-antimycotic. All compounds were dissolved and diluted into dimethylsulfoxide (DMSO) and were added to culture media for a final concentration of 0.3% DMSO for testing in a 7-point, 1:3 dilution series starting at 30 uM.
For viability analysis, samples were washed and resuspended in phosphate-buffered saline (PBS) and stained with LIVE/DEAD™ Fixable Violet Dead Cell Stain Kit (Life Technologies, L34963) for 20 minutes. Cells were then washed again with PBS and resuspended in PBS supplemented with 2% fetal bovine serum (FBS), and 2 mM EDTA to prepare for cell surface marker analysis. Cells were labeled with allophycocyanin-conjugated CD235a (1:100, BD Biosciences, 551336) and Brilliant Violet-conjugated CD71 (1:100, BD Biosciences, 563767) antibodies for 20 minutes. For analysis of cytoplasmic Fetal Hemoglobin (HbF), cells were fixed and permeabilized using the Fixation (BioLegend®, 420801) and Permeabilization Wash (BioLegend®, 421002) Buffers according to the manufacturer's protocol. During the permeabilization step, cells were stained with phycoerythrin-conjugated or FITC-conjugated HbF-specific antibody (1:10-1:25, Invitrogen™, MHFH04-4) for 30 minutes. Stained cells were washed with phosphate-buffered saline before analysis on the FACSCanto™ I1 flow cytometer or LSRFortessa™ (BD Biosciences). […]
mPB CD34+ cells were expanded for 6 days, then erythroid differentiated in the presence of compound for 7 days. Cells were fixed, stained and analyzed by flow cytometry. […]

Row | Dmax at 25 µM (WIZ) [%] | remaining activity at 25 µM (WIZ) [%] | DC50 (WIZ) [nM] | EC50 (Fetal Hemoglobin (HbF)) [nM] | Structure (SMILES) | HbF Amax (Fetal Hemoglobin (HbF)) [%]
1 | 84 | 16 | 89 | 172 | C[C@@H]1CN(C)CCN1Cc1ccc2onc(N3CCC(=O)NC3=O)c2c1 [Example 65, (R)-1-(5-((2,4-dimethylpiperazin-1-yl)methyl)benzo[d]isoxazol-3-yl)dihydropyrimidine-2,4(1H,3H)-dione] | 76
2 | 89 | 11 | 6.4 | 45 | C[C@H]1CN(Cc2ccc3onc(N4CCC(=O)NC4=O)c3c2)CCN1C [Example 29, (S)-1-(5-((3,4-dimethylpiperazin-1-yl)methyl)benzo[d]isoxazol-3-yl)dihydropyrimidine-2,4(1H,3H)-dione] | 80
3 | 85 | 15 | 397 | – | CC(C)(C)OC(=O)N1CCC(Cc2ccc3onc(N4CCC(=O)NC4=O)c3c2)C1 (stereo not shown) [Example 47, tert-butyl 3-((3-(2,4-dioxotetrahydropyrimidin-1 (2H)-yl)benzo[d]isoxazol-5-yl)methyl)pyrrolidine-1-carboxylate] | –
4 | 86 | 14 | 317 | – | O=C1CCN(c2noc3ccc(CN4CC5CCC4CN5CC4CCOCC4)cc23)C(=O)N1 (single isomer, unassigned) [Example 121, 1-(5-((5-((tetrahydro-2H-pyran-4-yl)methyl)-2,5-diazabicyclo[2.2.2]octan-2-yl)methyl)benzo[d]isoxazol-3-yl)dihydropyrimidine-2,4(1H,3H)-dione] | –
5 | 87 | 13 | 578 | – | COC[C@H]1CN(Cc2ccc3onc(N4CCC(=O)NC4=O)c3c2)CCN1C [Example 117, (R)-1-(5-((3-(methoxymethyl)-4-methylpiperazin-1-yl)methyl)benzo[d]isoxazol-3-yl)dihydropyrimidine-2,4(1H,3H)-dione] | –
6 | 89 | 11 | 37 | – | CC(C)CN1CCN(Cc2ccc3onc(N4CCC(=O)NC4=O)c3c2)CC1 [Example 24, 1-(5-((4-isobutylpiperazin-1-yl)methyl)benzo[d]isoxazol-3-yl)dihydropyrimidine-2,4(1H,3H)-dione] | –
7 | 83 | 17 | 28 | – | CC(C)[C@@H]1CN(C)CCN1Cc1ccc2onc(N3CCC(=O)NC3=O)c2c1 [Example 89, (R)-1-(5-((2-isopropyl-4-methylpiperazin-1-yl)methyl)benzo[d]isoxazol-3-yl)dihydropyrimidine-2,4(1H,3H)-dione] | –
8 | 91 | 9 | 149 | – | CC(c1ccc2onc(N3CCC(=O)NC3=O)c2c1)N1CCN(C)CC1 (stereo not shown) [Example 127, 1-(5-(1-(4-methylpiperazin-1-yl)ethyl)benzo[d]isoxazol-3-yl)dihydropyrimidine-2,4(1H,3H)-dione] | –
